Reference: patent publication US9745339B2 (GRAFFINITY PHARMACEUTICALS GMBH, priority 2012, dated 2017)

Key:
[1] = biological target: T1, Bevacizumab (Homo sapiens, UniProt P01857); assay: Microtiter plate chromatography of resins: binding and elution of Bevacizumab; settings: for Bevacizumab Bound: fraction of injected protein bound, 0.5 mg/ml IgG in PBS pH 7.3, ligand immobilized on SEPHAROSE 4 FF; for Bevacizumab Yield: mass eluted (glycine pH 2.5) / mass injected
T1 construct: 0.5 mg/ml IgG in PBS pH 7.3; ligand immobilized on SEPHAR; Bevacizumab Yield; other: mass eluted (glycine pH 2.5) / mass injected; kd (dissociation constant, Langmuir isotherm); other: Bevacizumab 0.05-5 mg/ml in PBS pH 7.3, 25° C., at least 3 h; qm (maximum capacity); other: mg Bevacizumab per ml of resin; Langmuir isotherm; t0; fused on or other part: Humanized anti-VEGF-A VH domain joined N-terminally to the IGHG1 constant region (engineered, no UniProt entry)
In short: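 About 30 μl packed resin columns loaded with 3.3 cv IgG at 0.5 mg ml^−1 in PBS or undiluted HCP, washed with 5 cv PBS, eluted with 5 cv glycine pH 2.5. Protein in fractions by Bradford. Bound fraction = (injected − flowthrough)/injected; yield = eluted/injected; selectivity = Bevacizumab bound fraction / HCP bound fraction, truncated beyond 10.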

[2] = test system: Tocilizumab; assay: Microtiter plate chromatography of resins: binding and elution of Tocilizumab; settings: fraction of injected protein bound; 0.5 mg/ml IgG in PBS pH 7.3
In short: (§1)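 About 30 μl resin columns loaded with 3.3 cv IgG at 0.5 mg ml^−1 in PBS (or undiluted HCP), washed with 5 cv PBS, eluted with 5 cv glycine pH 2.5. Fractions quantified by Bradford; bound fraction = (mi−mft)/mi, yield = me/mi.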

[3] = test system: Palivizumab; assay: Microtiter plate chromatography of resins: binding and elution of Palivizumab; settings: fraction of injected protein bound; 0.5 mg/ml IgG in PBS pH 7.3
In short: as §1

[4] = test system: Cetuximab; assay: Microtiter plate chromatography of resins: binding and elution of Cetuximab; settings: fraction of injected protein bound; 0.5 mg/ml IgG in PBS pH 7.3
In short: as §1

[5] = test system: poly-IgG from human serum (h-poly-IgG); assay: Microtiter plate chromatography of resins: binding and elution of human poly-IgG; settings: fraction of injected protein bound; 0.5 mg/ml IgG in PBS pH 7.3
In short: as §1

[6] = test system: host cell proteins (HCP); assay: Microtiter plate chromatography of resins: binding of host cell proteins; parameters: species or system CHO cell culture; settings: fraction of injected undiluted host cell proteins bound
In short: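 Undiluted HCP-containing flowthrough from protein A chromatography of CHO serum-free culture was loaded onto ~30 µl packed resin columns in microtiter-plate format. Columns were washed with 5 cv PBS and eluted with glycine pH 2.5, and fractions were quantified by Bradford. Bound fraction = (injected − flowthrough mass)/injected mass.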

[7] = biological target: T1, Bevacizumab; assay: Langmuir isotherms by batch adsorption; type: binding; settings: for qm (maximum capacity): mg Bevacizumab per ml of resin, Langmuir isotherm; for Kd: Bevacizumab 0.05-5 mg/ml in PBS pH 7.3, 25° C., at least 3 h, read-out: kd (dissociation constant, Langmuir isotherm) (converted)
[8] = biological target: T1, Bevacizumab; assay: Uptake kinetics by batch adsorption (time-scale of binding); settings: time after which 80% of equilibrium saturation occurred; 0.75 mg/ml Bevacizumab in PBS, 25° C.
Procedure: Uptake kinetics was investigated similarly by batch adsorption in 96-well filter plates. Again, 10 μl of sorbent slurry (50% v/v) were mixed with 100 μl of protein solution. […] Reactions were agitated vigorously at 25° C. for up to 80 min. Supernatants were separated rapidly by spinning through filters after 2.5, 5, 10, 20, 40 and 80 minutes and sampled for analysis. Concentrations of the antibody were analyzed by Bradford assay.
For determination of t0.8, measured concentrations in the supernatant were interpolated by fitting of double-exponentials and values of t0.8 were read out from graphs (2).

[9] = biological target: T1, Bevacizumab; assay: Dynamic binding capacity by column chromatography
Procedure: Dynamic binding capacities were determined by column chromatography with purified Bevacizumab. Resins were packed into analytical columns of 25 mm length and 3 mm inner diameter. Columns were fed with 1 mg/ml antibody in phosphate-buffered saline (150 mM NaCl, 20 mM phosphate buffer, pH 7.3) at a flow rate of 50 cm/h (3 min column residence time), while the concentration of antibody in effluents was monitored online via absorbance at 280 nm. Antibody was loaded until complete breakthrough of the feed. Dynamic binding capacities were determined at the 10% breakthrough. Equilibrium capacities were determined by integration of the area above the breakthrough curve. Bound antibody was stripped from columns by elution with glycine at pH 3.0.
It was calculated as the time t0.1 after which 10% breakthrough occurred, multiplied by the flow rate F and feed concentration cf. dynamiccapacity=t0.1·F·cf
Equilibrium capacity is defined as the maximum amount of antibody that binds to a column for a given feed stream concentration. It was calculated by evaluation of the following integral
[formula] containing the feed concentration cf, effluent concentration over time c(t) and flow rate F. The integral was evaluated numerically. Integration was limited to the time after which complete breakthrough had occurred. […]

[10] = Alkaline stability of ligands in 0.5 M sodium hydroxide; type: physicochemical; settings: 25° C., 8 days, hydrolysis monitored by LC-MS, read-out: t0.5 (half-life) (converted)
Procedure: A subset of ligands from Example 1 was tested for its alkaline stability. Ligands were treated with 0.5 M sodium hydroxide at 25° C. for 8 days. Hydrolysis was monitored by LC-MS analysis.

| Structure (SMILES) | Bevacizumab Bound [1] | Bevacizumab Yield [1] | Tocilizumab Bound [2] | Palivizumab Bound [3] | Cetuximab Bound [4] | h-poly-IgG Bound [5] | HCP Bound [6] | qm (maximum capacity) [7] | t0.8 (time-scale of binding) [8] | Dynamic Capacity ([9]; 10% breakthrough, 1 mg/ml Bevacizumab, 50 cm/h (3 min residence time)) | Equilibrium Capacity ([9]; feed concentration 1 mg/ml Bevacizumab, integration above breakthrough curve) | half-life [10] | Kd [7] |
| --- | --- | --- | --- | --- | --- | --- | --- | --- | --- | --- | --- | --- | --- |
| NCCCn1cnc2cc(C(=O)Nc3nnc(-c4ccco4)s3)ccc21 [Ligand L05, 1-(3-Amino-1-propyl)benzimidazole-5-carboxylic acid N-[5-(2-furyl)-1,3,4-thiadiazol-2-yl]amide] | 100% | 101% | 100% | 100% | 100% | 100% | 17% | 47 mg/mL | 9.8 min | 25 mg/mL | 39 mg/mL | > 41.6 days | – |
| NCCCn1cnc2cc(C(=O)Nc3nc(-c4cccnc4)cs3)ccc21 [Ligand L46, 1-(3-Amino-1-propyl)benzimidazole-5-carboxylic acid N-[4-(3-pyridyl)thiazol-2-yl] amide] | 100% | 103% | 100% | 98% | 100% | 100% | 17% | 48 mg/mL | 6.0 min | – | – | 30 days | 185 µM |
| NCCCn1cnc2cc(C(=O)Nc3nc(-c4ccncc4)cs3)ccc21 [Ligand L47, 1-(3-Amino-1-propyl)benzimidazole-5-carboxylic acid N-[4-(4-pyridyl)thiazol-2-yl] amide] | 100% | 100% | 99% | 98% | 100% | 100% | 13% | 43 mg/mL | 5.6 min | – | – | > 41.6 days | 169 µM |
| NCCCn1cnc2cc(C(=O)Nc3nncs3)ccc21 [Ligand L13, 1-(3-Amino-1-propyl)benzimidazole-5-carboxylic acid N-(1,3,4-thiadiazol-2-yl) amide] | 100% | 98% | 100% | 97% | 100% | 97% | 21% | 37 mg/mL | 7.0 min | – | – | > 41.6 days | – |
| NCCCn1cnc2cc(NC(=O)c3cn4ccsc4n3)ccc21 [Ligand L30, 1-(3-Amino-1-propyl)-5-[(imidazo-[2,1-b]thiazol-6-yl)carboxamido]benzimidazole] | 100% | 100% | 100% | 93% | 100% | 94% | 21% | 40 mg/mL | 9.3 min | – | – | 37.6 days | 358 µM |
| Cc1nc2cc(C(=O)Nc3nnc(-c4ccco4)s3)ccc2n1CCCN [Ligand L39, 1-(3-Amino-1-propyl)-2-methylbenzimidazole-5-carboxylic acid N-[5-(2-furyl)-1,3,4-thiadiazol-2-yl] amide] | 100% | 85% | 100% | 100% | 100% | 100% | 10% | 49 mg/mL | 7.8 min | – | – | > 41.6 days | – |
| Cn1nc(C(=O)Nc2ccc3c(c2)ncn3CCCN)c2ccccc21 [Ligand L01, 1-(3-Amino-1-propyl)-5-[(1-methylindazol-3-yl)carboxamido]benzimidazole] | 100% | 90% | 100% | 99% | 100% | 100% | 33% | 40 mg/mL | 9.2 min | – | – | 35 days | 210 µM |
| CCc1nc2cc(C(=O)Nc3nnc(-c4ccco4)s3)ccc2n1CCCN [Ligand L44, 1-(3-Amino-1-propyl)-2-ethylbenzimidazole-5-carboxylic acid N-[5-(2-furyl)-1,3,4-thiadiazol-2-yl] amide] | 100% | 88% | 100% | 100% | 100% | 100% | 16% | 53 mg/mL | 7.7 min | – | – | > 41.6 days | 265 µM |
| Cc1nc2cc(C(=O)Nc3nc(-c4ccccn4)cs3)ccc2n1CCCN [Ligand L42, 1-(3-Amino-1-propyl)-2-methylbenzimidazole-5-carboxylic acid N-[4-(2-pyridyl)thiazol-2-yl] amide] | 100% | 98% | 100% | 97% | 100% | 100% | 13.5% | 45 mg/mL | 7.6 min | – | – | > 41.6 days | 318 µM |
| CCc1nnc(NC(=O)c2ccc3c(c2)ncn3CCCN)s1 [Ligand L07, 1-(3-Amino-1-propyl)benzimidazole-5-carboxylic acid N-(2-ethyl-1,3,4-thiadiazol-5-yl) amide] | 100% | 93% | 100% | 90% | 100% | 94% | 23% | 38 mg/mL | 8.8 min | – | – | > 41.6 days | 200 µM |
